This note sets out measurements from patent US20050009154A1, “Biocatalytic preparation of 1-cyano-cyclohexaneacetic acid” (Pfizer Inc, priority 2003, published 2005).

Values after ≈ are worked out from the molar mass of the structure shown.

The nature of this data set: aqueous solubility of the starting material. Format: physicochemical. The note with it: aqueous buffer; 25° C., 20 mM phosphate buffer, pH 7; read-out: water solubility (aqueous solubility limit). On the procedure: The enzyme-catalyzed conversion of II to I can be carried out by contacting II with the enzyme catalyst in an aqueous reaction mixture. Compound II, the starting material, which is only moderately water soluble, (ca. 10 mM, 25° C., 20 mM phosphate buffer, pH 7), can be added to an aqueous reaction containing the enzyme catalyst at levels exceeding its aqueous solubility limit. Thus reaction mixtures initially consist of two phases, an aqueous phase containing dissolved II and the enzyme catalyst, and a solid phase containing undissolved II. At complete conversion of II, a single phase containing compound I and the enzyme catalyst remains. The enzyme catalyzed conversion of II to I can be carried out with levels of compound II from about 0.1 g/L to 148 g/L, with a preferred range of about 0.1 g/L to 90 g/L. The enzyme catalyst concentrations used in the present invention depend on the specific activity of the enzyme catalyst and is chosen to obtain the desired rate of reaction.

For orientation: solubility means how much of the substance goes into solution per volume. On to `N#CCC1(C#N)CCCCC1` [Compound II, 1-cyanocyclohexaneacetonitrile], for which the solubility is roughly 10 mM (≈ 1480 µg/mL).
